{"source": "patent US20020062088A1", "about": "“System and method for statistical analysis of QT interval as a function of changes in RR interval” (priority 2000, published 2002)", "key": {"conscious mongrel dog": {"system": "conscious mongrel dog", "details": "in vivo", "excerpt": "A system for recording electrocardiogram data in accordance with the present invention is broadly shown in FIG. 6 as reference numeral 100. […] The vehicle or test compound may be administered in various ways, including but not limited to orally, intravenously, or subcutaneous.\nHeart rate (RR interval) and Lead II ECG data are collected continuously on a beat-to-beat basis at a sampling rate of 1000 Hz to allow for millisecond (ms) resolution. Using the sampled data, the QT interval and preceding RR interval are measured on individual cardiac cycles using commercially available data acquisition and analysis software. The software package used in support of the data presented here was from Gould Inc. (Po-Ne-Mah) subsidiary. This software permits visual validation of the determination of end points used in the calculation of the ECG time intervals. The collection of data is not limited to any particular method. For example, ECG time intervals can be measured using a ECG strip chart recorder. Thus, both manual and electrical data collection is possible with the present invention.\nThe various treatments with vehicle or compounds are studied in a randomized fashion.\nApproximately 250 to 300 consecutive cardiac cycles are analyzed for a pre-dose period and during steady-state compound exposure. This encompasses between three to five minutes of continuous data for each data collection period. […] An asymptotic decaying exponential growth curve fit is used to describe the relationship between QT and RR interval:\nQT=A−B*exp(−C*RR/1000) (1)\nEquation (1) is used to fit the QT measurements to the preceding RR interval for each separate data set of consecutive cardiac cycles. The data from each sample period for each vehicle or compound dose is fit to the equation using a least squares nonlinear regression method such as, but not limited to, Quasi Gauss-Newton.\nThe upper 95% confidence limit for the difference of the curves is determined for each of the dose-to-pre-dose comparisons. If the dose curve crosses the 95% limit, the QT and RR values and the direction of crossing is noted.\nThe analysis of the compound versus vehicle effect on QT is also accomplished by comparisons of the number of prolonged points exceeding the 95% confidence interval of their respective pre-dose curves. The pre-dose curve value represents the least squares estimate of QT at that value of RR. The 95% limits are then used to compare the overall effect of the treatment (compound or vehicle) to that of the pre-dose response. The confidence limits of the two curves are combined (pooled) to determine the standard error of the difference between the pre-dose and post-dose curves. […] The extent of the confidence and prediction limits depends on the overall variability of the data and the values of the coefficients.\nThe number of pre-dose data that exceed the upper 95% prediction limit (referred to herein as “outliers”) is compared to the number of post-dose data that exceed the limit for each of the time periods. A repeated measures test for significant difference between pre-dose and post-dose outliers is conducted to evaluate an effect. In the case of small but consistent effects, the repeated measures test detects significant differences better than individual tests. […] To minimize the chance of false negatives, β, conventionally known as “Type II errors,” no multiple comparison adjustments are made for the individual tests.\nOnce the outliers are identified, they are compared to the pre-dose curve to estimate the magnitude of prolongation, ΔQT, above the QT-RR curve fit to the pre-dose data. The magnitude of prolongation is referenced to the curve rather than the upper 95% confidence bound because the curve is the best estimate of the QT-RR functional relationship, regardless of the number of data points."}, "humans": {"system": "humans", "details": "cited from earlier work"}}, "note": "Where two headings read alike, the source gives them in different places.", "data": [{"smiles": "COc1cc(N)c(Cl)cc1C(=O)NC1CCN(CCCOc2ccc(F)cc2)CC1OC", "note": "(stereo not shown) [cisapride]", "values": [{"measurement": "Treatment crosses pre-dose curve", "setting": "conscious mongrel dog", "result": "Yes:RR ="}, {"measurement": "number and magnitude of the outliers compared to the pre-dose and vehicle response", "setting": "conscious mongrel dog", "result": "significant increase"}, {"measurement": "post-dose curve versus pre-dose curve", "setting": "conscious mongrel dog", "result": "not significantly greater than the pre-dose curve"}, {"measurement": "#outliers/total (QT exceeding 95% confidence bounds of pre-dose curve)", "setting": "conscious mongrel dog; mongrel", "result": "130/324"}, {"measurement": "RR at crossing point of post-dose and pre-dose curves", "setting": "conscious mongrel dog; mongrel", "result": 1094, "unit": "ms"}, {"measurement": "mean ΔQT (of QT exceeding 95% confidence bounds of pre-dose curve)", "setting": "conscious mongrel dog; mongrel", "result": 12}, {"measurement": "ΔQT range (of QT exceeding 95% confidence bounds of pre-dose curve)", "setting": "conscious mongrel dog; mongrel", "result": "5 - 47"}, {"measurement": "QTRR1000 (least squares estimate of QT at RR 1000 ms, mean ± SEM from curve fit)", "setting": "conscious mongrel dog; mongrel, iv", "result": "240 ± 18"}, {"measurement": "QTc, clinically", "setting": "humans; clinical", "result": "clear, dose-dependent increase in QTC"}, {"measurement": "QT prolongation and sudden death in humans", "setting": "humans", "result": "caused QT prolongation and sudden death"}]}, {"smiles": "CC(C)NCC(O)c1ccc(NS(C)(=O)=O)cc1", "note": "(stereo not shown) [sotalol]", "values": [{"measurement": "QT prolongation and sudden death in humans", "setting": "humans", "result": "caused QT prolongation and sudden death"}]}, {"smiles": "CC(C)(C)c1ccc(C(O)CCCN2CCC(C(O)(c3ccccc3)c3ccccc3)CC2)cc1", "note": "(stereo not shown) [terfenadine]", "values": [{"measurement": "number and magnitude of the outliers compared to the pre-dose and vehicle response", "setting": "conscious mongrel dog", "result": "significant increase"}, {"measurement": "QTc, clinically", "setting": "humans; human, in vivo", "result": "clear, dose-dependent increase in QTC"}]}]}
